One series deals with Candida albicans. The series can be described thus: Antifungal activity against Candida albicans ATCC 10231 after 24 hrs by two fold serial dilution method. The series is classed as functional. The conditions noted are these: ATCC 10231, 24 h.
The test system of the next series is Candida tropicalis. The series can be described thus: Antifungal activity against Candida tropicalis ATCC 13803 after 24 hrs by two fold serial dilution method. Format: functional. Particulars: ATCC 13803, 24 h.
For another series, the system named is Pichia kudriavzevii. As to the kind of experiment: Antifungal activity against Candida krusei ATCC 6258 after 24 hrs by two fold serial dilution method. Format: functional. The conditions noted are these: ATCC 6258, 24 h.
A further series deals with Aspergillus terreus. As to the kind of experiment: Antifungal activity against Aspergillus terreus ATCC 46941 after 24 hrs by two fold serial dilution method. The series is classed as functional. The conditions noted are these: ATCC 46941, 24 h.
The subject of the next series is Cryptococcus neoformans. The series can be described thus: Antifungal activity against Cryptococcus neoformans ATCC 36556 after 24 hrs by two fold serial dilution method. The series is classed as functional. Particulars: ATCC 36556, 24 h.
Another series concerns Clavispora lusitaniae. As to the kind of experiment: Antifungal activity against Candida lusitaniae ATCC 42720 after 24 hrs by two fold serial dilution method. Format: functional. Particulars: ATCC 42720, 24 h.
The next series deals with Aspergillus fumigatus. As to the kind of experiment: Antifungal activity against Aspergillus fumigatus ATCC 16424 after 24 hrs by two fold serial dilution method. Format: functional. The conditions noted are these: ATCC 16424, 24 h.
The subject of series [1] is Mus musculus. The series can be described thus: Toxicity ICR mouse assessed as effect on internal organ morphology at 33 to 900 mg/kg, po after 7 days by microscopy. Format: organism-based. Details: dose 33-900 mg/kg, route oral. The conditions noted are these: in vivo, 168 h.
Series [2] can be described thus: Toxicity in po dosed ICR mouse after 7 days. The series is classed as organism-based. The conditions noted are these: in vivo.
Series [3] relates to Mus musculus. As to the kind of experiment: Toxicity ICR mouse assessed as mortality at 33 to 900 mg/kg, po after 7 days. Format: organism-based. Details: dose 33-900 mg/kg, route oral. The conditions noted are these: in vivo, 168 h.
Series [4] deals with Mus musculus. The series can be described thus: Toxicity ICR mouse assessed as appearance of clinical signs at 33 to 900 mg/kg, po after 7 days. Format: organism-based. Details: dose 33-900 mg/kg, route oral. Particulars: in vivo, 168 h.
In series [5] the test system is Mus musculus. The series can be described thus: Toxicity ICR mouse assessed as effect on body weight at 33 to 900 mg/kg, po after 7 days. The series is classed as organism-based. Details: dose 33-900 mg/kg, route oral. Particulars: in vivo, 168 h.

Values after ≈ are worked out from the molar mass of the structure shown.

Results on 18 compounds are retold here after ChEMBL document CHEMBL1268965, “Synthesis and antifungal activity of a novel series of 13-(4-isopropylbenzyl)berberine derivatives” (Bioorg Med Chem Lett, 2010).

Usually MIC stands for the least concentration at which growth counts as inhibited. A word on the LD50: it is the dose at which mortality reaches 50%. Higher therefore signals lower toxicity.

Consider `COc1ccc2c(Cc3ccc(C(C)C)cc3)c3[n+](cc2c1OCc1cc(F)c(F)c(F)c1)CCc1cc2c(cc1-3)OCO2.[Cl-]`, for which the MIC amounted to 4 µg/mL against Candida albicans; 4 µg/mL in the series with Candida tropicalis; 4 µg/mL against Pichia kudriavzevii; 32 µg/mL against Aspergillus terreus; 4 µg/mL against Cryptococcus neoformans; 4 µg/mL with Clavispora lusitaniae. Besides, in the series on Aspergillus fumigatus, the minimum inhibitory concentration (MIC) worked out at 32 µg/mL.
`COc1ccc2c(Cc3ccc(C(C)C)cc3)c3[n+](cc2c1OC)CCc1cc2c(cc1-3)OCO2`: the MIC is 4 µg/mL against Candida albicans; 1 µg/mL against Candida tropicalis; 4 µg/mL against Pichia kudriavzevii; 32 µg/mL in the series on Aspergillus terreus; 4 µg/mL against Cryptococcus neoformans; 1 µg/mL against Clavispora lusitaniae. In the series with Aspergillus fumigatus, this compound came in with an MIC of 64 µg/mL.
With `COc1ccc2c(Cc3ccc(C(C)C)cc3)c3[n+](cc2c1OCCCO)CCc1cc2c(cc1-3)OCO2.[Cl-]`, the MIC against Candida albicans worked out at 2 µg/mL; against Candida tropicalis, 1 µg/mL; in the series on Pichia kudriavzevii it was 2 µg/mL; against Aspergillus terreus, 8 µg/mL; against Cryptococcus neoformans, 2 µg/mL; in the series on Clavispora lusitaniae, 1 µg/mL. The compound also displayed an MIC with Aspergillus fumigatus of 8 µg/mL.
As to `COc1ccc2c(Cc3ccc(C(C)C)cc3)c3[n+](cc2c1OCc1ccc(C(F)(F)F)cc1)CCc1cc2c(cc1-3)OCO2.[Cl-]`, the minimal inhibitory concentration (MIC) against Candida albicans is 2 µg/mL; in the series on Candida tropicalis, 2 µg/mL; against Pichia kudriavzevii, 4 µg/mL; against Aspergillus terreus it was 16 µg/mL; against Cryptococcus neoformans, 4 µg/mL; with Clavispora lusitaniae it was 2 µg/mL. For the same compound, in the series with Aspergillus fumigatus, the minimum inhibitory concentration (MIC) was 16 µg/mL.
Consider `C[C@@H]1[C@H](O)[C@@H](C)/C=C/C=C/C=C/C=C/C=C/C=C/C=C/[C@H](O[C@@H]2O[C@H](C)[C@@H](O)[C@H](N)[C@@H]2O)C[C@@H]2O[C@](O)(C[C@@H](O)C[C@@H](O)[C@H](O)CC[C@@H](O)C[C@@H](O)CC(=O)O[C@H]1C)C[C@H](O)[C@H]2C(=O)O` [AMPHOTERICIN B], for which the minimal inhibitory concentration (MIC) against Candida albicans came to 0.5 µg/mL (≈ 0.541 µM); against Candida tropicalis, 0.5 µg/mL (≈ 0.541 µM); against Pichia kudriavzevii, 0.5 µg/mL (≈ 0.541 µM); in the series on Aspergillus terreus it was 16 µg/mL (≈ 17.3 µM); with Cryptococcus neoformans it was 0.25 µg/mL (≈ 0.271 µM); against Clavispora lusitaniae it was 1 µg/mL (≈ 1.08 µM). In the series on Aspergillus fumigatus, this compound had an MIC of 1 µg/mL (≈ 1.08 µM).
Regarding `COc1ccc2c(Cc3ccc(C(C)C)cc3)c3[n+](cc2c1OCc1ccccc1)CCc1cc2c(cc1-3)OCO2.[Cl-]`, the minimum inhibitory concentration (MIC) with Candida albicans was 4 µg/mL; against Candida tropicalis it was 4 µg/mL; against Pichia kudriavzevii, 4 µg/mL; against Aspergillus terreus, 32 µg/mL; in the series on Cryptococcus neoformans it was 4 µg/mL; in the series on Clavispora lusitaniae, 4 µg/mL. The compound further registered an MIC against Aspergillus fumigatus of 64 µg/mL.
As to `COc1ccc2c(Cc3ccc(C(C)C)cc3)c3[n+](cc2c1OCc1ccc(C(C)C)cc1)CCc1cc2c(cc1-3)OCO2.[Cl-]`, the MIC in the series with Candida albicans was 1 µg/mL; against Candida tropicalis, 1 µg/mL; against Pichia kudriavzevii, 2 µg/mL; against Aspergillus terreus, 8 µg/mL; against Cryptococcus neoformans it was 2 µg/mL; in the series on Clavispora lusitaniae, 1 µg/mL. Besides, in the series on Aspergillus fumigatus, the minimal inhibitory concentration (MIC) came out at 4 µg/mL.
As for `CCCCOc1c(OC)ccc2c(Cc3ccc(C(C)C)cc3)c3[n+](cc12)CCc1cc2c(cc1-3)OCO2.[Cl-]`, the MIC came to 0.5 µg/mL in the series on Candida albicans; 0.25 µg/mL with Candida tropicalis; 1 µg/mL in the series with Pichia kudriavzevii; 4 µg/mL in the series with Aspergillus terreus; 1 µg/mL against Cryptococcus neoformans; 0.25 µg/mL against Clavispora lusitaniae. Also, in the series with Aspergillus fumigatus, it took 2 µg/mL to inhibit growth (MIC). Also, the Activity result in the series on Mus musculus [1], in the series with Mus musculus [3], in the series with Mus musculus [4] and with Mus musculus [5] was “Non-toxic” each time. The LD50 at 168 h in [2] was 900 mg/kg.
Turning to `COc1ccc2c(Cc3ccc(C(C)C)cc3)c3[n+](cc2c1OCc1ccc(C(C)(C)C)cc1)CCc1cc2c(cc1-3)OCO2.[Cl-]`, the MIC against Candida albicans was determined as 1 µg/mL; with Candida tropicalis, 1 µg/mL; against Pichia kudriavzevii, 4 µg/mL; in the series on Aspergillus terreus it was 8 µg/mL; in the series on Cryptococcus neoformans it was 2 µg/mL; in the series with Clavispora lusitaniae it was 1 µg/mL. This compound also came in with an MIC with Aspergillus fumigatus of 4 µg/mL.
For the compound `C=CCOc1c(OC)ccc2c(Cc3ccc(C(C)C)cc3)c3[n+](cc12)CCc1cc2c(cc1-3)OCO2.[Cl-]`, the MIC was found to be 1 µg/mL in the series on Candida albicans; 1 µg/mL against Candida tropicalis; 2 µg/mL against Pichia kudriavzevii; 8 µg/mL against Aspergillus terreus; 2 µg/mL with Cryptococcus neoformans; 1 µg/mL against Clavispora lusitaniae. 8 µg/mL was the least that counted as inhibitory against Aspergillus fumigatus (MIC).
For the compound `COc1ccc2c(Cc3ccc(C(C)C)cc3)c3n(cc-2c1=O)CCc1cc2c(cc1-3)OCO2`, the MIC is 16 µg/mL (≈ 35.3 µM) against Candida albicans; 16 µg/mL (≈ 35.3 µM) against Candida tropicalis; 16 µg/mL (≈ 35.3 µM) in the series on Pichia kudriavzevii; more than 128 µg/mL against Aspergillus terreus; 4 µg/mL (≈ 8.82 µM) in the series on Cryptococcus neoformans; 16 µg/mL (≈ 35.3 µM) against Clavispora lusitaniae. Moreover, the MIC against Aspergillus fumigatus was more than 128 µg/mL.
On to `COc1ccc2c(Cc3ccc(C(C)C)cc3)c3[n+](cc2c1OCc1ccc(OC(F)(F)F)cc1)CCc1cc2c(cc1-3)OCO2.[Cl-]`, for which the MIC was determined as 2 µg/mL in the series on Candida albicans; 2 µg/mL against Candida tropicalis; 4 µg/mL in the series with Pichia kudriavzevii; 16 µg/mL with Aspergillus terreus; 4 µg/mL against Cryptococcus neoformans; 2 µg/mL against Clavispora lusitaniae. In the series with Aspergillus fumigatus, this compound showed a minimum inhibitory concentration (MIC) of 32 µg/mL.
As to `CCC(C)(C)Oc1c(OC)ccc2c(Cc3ccc(C(C)C)cc3)c3[n+](cc12)CCc1cc2c(cc1-3)OCO2.[Cl-]`, the minimal inhibitory concentration (MIC) in the series with Candida albicans worked out at 2 µg/mL; against Candida tropicalis, 1 µg/mL; against Pichia kudriavzevii, 4 µg/mL; in the series on Aspergillus terreus, 16 µg/mL; with Cryptococcus neoformans, 4 µg/mL; with Clavispora lusitaniae it was 1 µg/mL. In the series with Aspergillus fumigatus, this compound had a minimal inhibitory concentration (MIC) of 32 µg/mL.
Take `C/C=C/COc1c(OC)ccc2c(Cc3ccc(C(C)C)cc3)c3[n+](cc12)CCc1cc2c(cc1-3)OCO2.[Cl-]`: the minimum inhibitory concentration (MIC) in the series with Candida albicans amounted to 0.5 µg/mL; against Candida tropicalis, 0.5 µg/mL; in the series with Pichia kudriavzevii, 1 µg/mL; against Aspergillus terreus, 4 µg/mL; with Cryptococcus neoformans, 1 µg/mL; in the series on Clavispora lusitaniae, 0.5 µg/mL. Further, in the series on Aspergillus fumigatus, the lowest concentration to inhibit growth (MIC) was 2 µg/mL.
As to `CCCOc1c(OC)ccc2c(Cc3ccc(C(C)C)cc3)c3[n+](cc12)CCc1cc2c(cc1-3)OCO2.[Cl-]`, the minimum inhibitory concentration (MIC) was 1 µg/mL against Candida albicans; 0.5 µg/mL against Candida tropicalis; 2 µg/mL with Pichia kudriavzevii; 8 µg/mL in the series on Aspergillus terreus; 2 µg/mL with Cryptococcus neoformans; 0.5 µg/mL against Clavispora lusitaniae. Also, 4 µg/mL was the least that counted as inhibitory in the series with Aspergillus fumigatus (MIC).
On to `COc1ccc2c(Cc3ccc(C(C)C)cc3)c3[n+](cc2c1OC(C)(C)C)CCc1cc2c(cc1-3)OCO2.[Cl-]`, for which the MIC against Candida albicans was 4 µg/mL; in the series on Candida tropicalis it was 1 µg/mL; with Pichia kudriavzevii, 4 µg/mL; in the series on Aspergillus terreus, 32 µg/mL; against Cryptococcus neoformans it was 4 µg/mL; in the series on Clavispora lusitaniae, 1 µg/mL. In addition, the minimum inhibitory concentration (MIC) against Aspergillus fumigatus is 32 µg/mL.
For `COc1ccc2c(Cc3ccc(C(C)C)cc3)c3[n+](cc2c1OC(C)=O)CCc1cc2c(cc1-3)OCO2.[Cl-]`, the MIC was 16 µg/mL against Candida albicans; 16 µg/mL with Candida tropicalis; 16 µg/mL in the series with Pichia kudriavzevii; more than 128 µg/mL with Aspergillus terreus; 8 µg/mL in the series with Cryptococcus neoformans; 16 µg/mL in the series on Clavispora lusitaniae. In the series with Aspergillus fumigatus, this compound had an MIC of more than 128 µg/mL.
For the compound `CCCC(=O)Oc1c(OC)ccc2c(Cc3ccc(C(C)C)cc3)c3[n+](cc12)CCc1cc2c(cc1-3)OCO2.[Cl-]`, the minimal inhibitory concentration (MIC) against Candida albicans was 8 µg/mL; against Candida tropicalis, 8 µg/mL; in the series on Pichia kudriavzevii, 8 µg/mL; in the series on Aspergillus terreus, more than 128 µg/mL; against Cryptococcus neoformans, 4 µg/mL; against Clavispora lusitaniae, 8 µg/mL. Also, the MIC in the series with Aspergillus fumigatus was more than 128 µg/mL.
